experiment: RSV-A Assay: The description is Japanese.

Row | SMILES | EC50
1 | O=C(O)c1ccc(-n2cncn2)cc1N1CCOCC1 | in the range around 600 nM
2 | O=C1Nc2ccccc2C(c2ccccc2)=NC1Nc1nc2ccc(F)cc2o1 (configuration not stated) | > 800 nM
3 | O=C1Nc2ccccc2C(c2ccccc2)=NC1Nc1nnc(-c2ccc(N3CCOCC3)cc2)o1 (configuration not stated) | < 400 nM
4 | Cc1nc(-c2nnc(NC3N=C(c4ccccc4)c4ccccc4NC3=O)o2)ccc1F (configuration not stated) | > 800 nM
5 | O=C1Nc2ccccc2C(c2ccccc2)=NC1Nc1nnc(-c2cc(F)ccc2N2CCOCC2)o1 (configuration not stated) | in the range around 600 nM
6 | O=C1Nc2ccccc2C(c2ccccc2)=NC1Nc1nnc(-c2ccc(F)cc2N2CCOCC2)o1 (configuration not stated) | < 400 nM
7 | O=C1Nc2ccccc2C(c2ccccc2)=N[C@@H]1Nc1nnc(-c2ccc(N3CCOCC3)cc2F)o1 | < 400 nM
8 | O=C1Nc2ccccc2C(c2ccccc2)=NC1Nc1nnc(-c2cnccc2N2CCOCC2)o1 (configuration not stated) | in the range around 600 nM
9 | COCCN(C)c1ccc(-c2nnc(NC3N=C(c4ccccc4)c4ccccc4NC3=O)o2)cc1 (configuration not stated) | > 800 nM
10 | O=C1Nc2ccccc2C(c2ccccc2)=N[C@H]1Nc1nnc(-c2ccccc2N2CCOCC2)o1 | > 800 nM
11 | O=C1Nc2ccccc2C(c2ccccc2)=NC1Nc1nc2cc(F)ccc2o1 (configuration not stated) | > 800 nM
12 | O=C1Nc2ccccc2C(c2ccccc2)=N[C@H]1Nc1nnc(-c2ccc(N3CCOCC3)cc2)o1 | > 800 nM
13 | O=C1Nc2ccccc2C(c2ccccc2)=N[C@H]1Nc1nnc(-c2ccc(N3CCOCC3)cc2F)o1 | > 800 nM
14 | O=C1Nc2ccccc2C(c2ccccc2)=NC1Nc1nnc(-c2ccc(-n3cccn3)cc2N2CCOCC2)o1 (configuration not stated) | < 400 nM
15 | O=C1Nc2ccccc2C(c2ccccc2)=N[C@@H]1Nc1nnc(-c2ccccc2N2CCOCC2)o1 | < 400 nM
16 | O=C1Nc2ccccc2C(c2ccccc2)=NC1Nc1nnc(-c2ccc(N3CCOCC3)nc2)o1 (configuration not stated) | < 400 nM
17 | CN(C)c1ccc(-c2nnc(NC3N=C(c4ccccc4)c4ccccc4NC3=O)o2)nc1 (configuration not stated) | > 800 nM
18 | O=C1Nc2ccccc2C(c2ccccc2)=NC1Nc1nnc(-c2cccnc2N2CCOCC2)o1 (configuration not stated) | < 400 nM
19 | O=C1Nc2ccccc2C(c2ccccc2)=NC1Nc1nnc(-c2ccc(N3CCOCC3)c(F)c2)o1 (configuration not stated) | > 800 nM

Row | SMILES | EC50
20 | O=C1Nc2ccccc2C(c2ccccc2)=NC1Nc1nnc(-c2ccc(C(F)(F)F)cc2N2CCOCC2)o1 (configuration not stated) | < 400 nM
21 | O=C1Nc2ccccc2C(c2ccccc2)=NC1Nc1nc2c(F)cccc2o1 (configuration not stated) | > 800 nM
22 | Cc1ccc2oc(NC3N=C(c4ccccc4)c4ccccc4NC3=O)nc2c1 (configuration not stated) | > 800 nM
23 | O=C1Nc2ccccc2C(c2ccccc2)=NC1Nc1nnc(-c2ccc(N3CCOCC3)cn2)o1 (configuration not stated) | > 800 nM
24 | COCCNc1ccc(-c2nnc(NC3N=C(c4ccccc4)c4ccccc4NC3=O)o2)cc1 (configuration not stated) | > 800 nM
25 | COc1ccc(CN2C(=O)C(C)(N=[N+]=[N-])N=C(c3ccccc3)c3ccccc32)cc1 (configuration not stated) | > 800 nM
26 | O=C1Nc2ccccc2C(c2ccccc2)=NC1Nc1nnc(-c2ccc(N3CCOCC3)cc2Cl)o1 (configuration not stated) | > 800 nM
27 | O=C1Nc2ccccc2C(c2ccccc2)=NC1Nc1nnc(-c2cnccc2N2CCCCC2)o1 (configuration not stated) | > 800 nM
28 | Cc1cc(-c2nnc(NC3N=C(c4ccccc4)c4ccccc4NC3=O)o2)ccc1N1CCOCC1 (configuration not stated) | in the range around 600 nM
29 | COc1ccc(-c2nnc(NC3N=C(c4ccccc4)c4ccccc4NC3=O)o2)nc1Cl (configuration not stated) | > 800 nM
30 | N#Cc1ccc(-c2nnc(NC3N=C(c4ccccc4)c4ccccc4NC3=O)o2)c(N2CCOCC2)c1 (configuration not stated) | < 400 nM
31 | CS(=O)(=O)c1ccc(-c2nnc(NC3N=C(c4ccccc4)c4ccccc4NC3=O)o2)nc1 (configuration not stated) | > 800 nM
32 | CS(=O)(=O)c1ccc(-c2nnc(NC3N=C(c4ccccc4)c4ccccc4NC3=O)o2)c(N2CCOCC2)c1 (configuration not stated) | > 800 nM
33 | O=C1Nc2ccccc2C(c2ccccc2)=NC1Nc1nc2ccccc2s1 (configuration not stated) | > 800 nM
34 | O=C1Nc2ccccc2C(c2ccccc2)=NC1Nc1nnc(-c2ccc(C(F)(F)F)nc2N2CCOCC2)o1 (configuration not stated) | in the range around 600 nM
35 | O=C1Nc2ccccc2C(c2ccccc2)=NC1Nc1nnc(-c2ccc(NC3CCCCC3)cc2)o1 (configuration not stated) | > 800 nM
36 | O=C1Nc2ccccc2C(c2ccccc2)=NC1Nc1nnc(-c2cccc(N3CCOCC3)c2)o1 (configuration not stated) | > 800 nM
37 | CCOC(=O)c1ncccc1N1CCOCC1 | < 400 nM

From ChEMBL document CHEMBL5729210, “Benzodiazepine derivatives as RSV inhibitors” (2022)
